Drawing on US20250214999A1, “HETEROCYCLIC GLP-1 AGONISTS” (Gasherbrum Bio, Inc., priority 2020, published 2025), this text covers EC50 for 23 compounds.

Sequence of GLP-1 Receptor (P43220 24-463): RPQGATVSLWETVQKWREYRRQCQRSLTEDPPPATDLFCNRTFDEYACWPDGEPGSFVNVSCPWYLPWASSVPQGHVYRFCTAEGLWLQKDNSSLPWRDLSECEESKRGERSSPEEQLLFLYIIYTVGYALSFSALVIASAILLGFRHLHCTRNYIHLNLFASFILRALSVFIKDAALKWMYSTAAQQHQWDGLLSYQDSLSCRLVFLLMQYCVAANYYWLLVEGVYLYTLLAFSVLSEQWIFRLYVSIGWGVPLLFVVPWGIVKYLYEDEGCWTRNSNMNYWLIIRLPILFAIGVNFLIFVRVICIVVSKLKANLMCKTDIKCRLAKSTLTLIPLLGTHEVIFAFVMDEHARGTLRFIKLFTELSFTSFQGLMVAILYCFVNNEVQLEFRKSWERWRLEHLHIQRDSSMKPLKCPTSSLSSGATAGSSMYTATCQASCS

For the assay, the target named is GLP-1 Receptor (Homo sapiens (Human), UniProt P43220). The assay can be described thus: GLP-1R agonist cAMP stimulation assay (HEK293/GLP1R/CRE-LUC cells). Format: cell-based. To be noted: 30 min incubation, read-out: GLP1R cAMP Stimulation DR: EC50. The method, then:
Activation of GLP-1 receptor is known to stimulate cyclic AMP (cAMP) production in cells which indicates primary coupling to the Gαs subunit of the G protein heterotrimeric complex.
To optimize functional activity directed toward Gαs coupling, a HEK293/CRELuc cell line developed by HDB stably expressing the GLP-1 Receptor was used. 200× concentration of compound working solutions were prepared (Agilent Technologies Bravo) with 1/2 log serial dilution in 384-well Echo LDV plate (Labcyte, Cat #LP-0200). 50 nL/well 200× concentration of compound working solutions were moved to 384-well white low volume plate (Greiner, Cat #784075) using Labcyte ECHO550. 1×10^5 cells/mL HEK293/GLP1R/CRE-LUC (HD Biosciences) cell suspensions prepared with assay buffer [DPBS containing 0.5 mM IBMX (Sigma,Cat #I5879) and 0.1% BSA (GENVIEW, Cat #FA016-100 g)], 10 uL cell suspensions were added to each well of previous generated assay plate which already contains 50 nl compound at 200× concentration using ThermoFisher Multidrop Combi (1000cells/well). Seal the plate and incubate at 37° C. with 5% CO2 for 30 min.
After incubation the CAMP assay signal was generated using cAMP dynamic 2 Kit (Cisbio). 5 μL cAMP-d2 working solution was added to each well, followed with 5 μL Anti-cAMP antibody-cryptate working solution added to each well using ThermoFisher Multidrop Combi. Incubate at room temperature for 1 hour protected from light. Read the fluorescence at 665 and 615 nm with Reader PerkinElmer En Vision.
One may read the EC50 as the concentration at which the effect is half-maximal. As to `O=C(O)c1ccc2nc(CN3CCC(c4cccc5c4OCC(c4ccc(Cl)cc4F)O5)CC3)n(C[C@@H]3CCO3)c2n1` (mixture of isomers) [Compound 104a, 2-((4-(2-(4-Chloro-2-fluorophenyl)-2,3-dihydrobenzo[b][1,4]dioxin-5-yl)piperidin-1-yl)methyl)-3-((S)-oxetan-2-ylmethyl)-3H-imidazo[4,5-b]pyridine-5-carboxylic acid], the EC50 fell in the range of 0.2 to 20 nM.
As for `O=C(O)c1ccc2nc(CN3CCC(c4cccc5c4OC(c4ccc(Cl)cc4F)CO5)CC3)n(C[C@@H]3CCO3)c2n1` (single isomer, unassigned) [Compound 130b], the figure is not above 0.2 nM; as for `O=C(O)c1ccc2nc(CN3CCC(c4cccc5c4OC(c4ccc(Cl)cc4F)CO5)CC3)n(C[C@@H]3CCO3)c2n1` (single isomer, unassigned) [Compound 130c], 0.2 to 20 nM.
`O=C(O)c1ccc2nc(Cc3ccc(-c4cccc5c4OCC(c4ccc(Cl)cc4F)O5)cc3)n(C[C@@H]3CCO3)c2n1` (stereo in doubt) [Compound 107a, 2-[[4-[2-(4-chloro-2-fluoro-phenyl)-2,3-dihydro-1,4-benzodioxin-5-yl]phenyl]methyl]-3-(oxetan-2-ylmethyl)imidazo[4,5-b]pyridine-5-carboxylic acid]: the concentration giving a half-maximal response (EC50) lay in the range of 20 to 200 nM.
As to `O=C(O)c1ccc2nc(CN3CCC(c4cccc5c4OCC(c4ccccc4)O5)CC3)n(C[C@@H]3CCO3)c2n1` (stereo partly drawn) [Compound 101a, 3-((S)-oxetan-2-ylmethyl)-2-((4-(2-phenyl-2,3-dihydrobenzo[b][1,4]dioxin-5-yl)piperidin-1-yl)methyl)-3H-imidazo[4,5-b]pyridine-5-carboxylic acid], the EC50 was in the range of 0.2 to 20 nM.
The same measure for `O=C(O)c1ccc2nc(CN3CCC(c4cccc5c4OCC(c4ccccc4)C5)CC3)n(C[C@@H]3CCO3)c2n1` (stereo partly drawn) [Compound 103a, 3-(((S)-oxetan-2-yl)methyl)-2-((4-(3-phenylchroman-8-yl)piperidin-1-yl)methyl)-3Himidazo[4,5-b]pyridine-5-carboxylic acid]: 0.2 to 20 nM; for `O=C(O)c1ccc2nc(CN3CCC(c4cccc5c4OC[C@@H](c4ccc(Cl)cc4F)O5)CC3)n(C[C@@H]3CCO3)c2n1` [Compound 104b, 2-((4-((R)-2-(4-chloro-2-fluorophenyl)-2,3-dihydrobenzo[b][1,4]dioxin-5-yl)piperidin-1-yl)methyl)-3-(((S)-oxetan-2-yl)methyl)-3H-imidazo[4,5-b]pyridine-5-carboxylic acid]: 0.2 to 20 nM.
For `O=C(O)c1ccc2nc(CN3CCC(c4cccc5c4OC[C@H](c4ccc(Cl)cc4F)O5)CC3)n(C[C@@H]3CCO3)c2n1` [Compound 104c, 2-((4-((S)-2-(4-chloro-2-fluorophenyl)-2,3-dihydrobenzo[b][1,4]dioxin-5-yl)piperidin-1-yl)methyl)-3-(((S)-oxetan-2-yl)methyl)-3H-imidazo[4,5-b]pyridine-5-carboxylic acid], the EC50 was 20 to 200 nM.
Consider `O=C(O)c1ccc2nc(CN3CCC(c4cccc5c4CCC(c4ccc(Cl)cc4F)O5)CC3)n(C[C@@H]3CCO3)c2n1` (stereo partly drawn) [Compound 105a, 2-((4-(2-(4-chloro-2-fluorophenyl)chroman-5-yl)piperidin-1-yl)methyl)-3-(((S)oxetan-2-yl)methyl)-3H-imidazo[4,5-b]pyridine-5-carboxylic acid], for which the EC50 was more than 200 nM.
Regarding `O=C(O)c1ccc2nc(CN3CCC(c4cccc5c4OCC(c4ccc(Cl)cc4F)C5)CC3)n(C[C@@H]3CCO3)c2n1` (stereo partly drawn) [Compound 106a, 2-((4-(3-(4-chloro-2-fluorophenyl)chroman-8-yl)piperidin-1-yl)methyl)-3-(((S)-oxetan-2-yl)methyl)-3H-imidazo[4,5-b]pyridine-5-carboxylic acid], the EC50 fell in the range of 0.2 to 20 nM.
Turning to `O=C(O)c1ccc2nc(CN3CCN(c4cccc5c4OCC(c4ccc(Cl)cc4F)O5)CC3)n(C[C@@H]3CCO3)c2n1` (stereo partly drawn) [Compound 108a, 2-((4-(2-(4-chloro-2-fluorophenyl)-2,3-dihydrobenzo[b][1,4]dioxin-5-yl)piperazin-1-yl)methyl)-3-((S)-oxetan-2-ylmethyl)-3H-imidazo[4,5-b]pyridine-5-carboxylic acid], the EC50 was in the range of 0.2 to 20 nM.
As for `O=C(O)c1ccc2nc(CN3CCC(c4cccc5c4OCC(c4ccccc4F)O5)CC3)n(C[C@@H]3CCO3)c2n1` (stereo partly drawn) [Compound 109a, 2-((4-(2-(2-fluorophenyl)-2,3-dihydrobenzo[b][1,4]dioxin-5-yl)piperidin-1-yl)methyl)-3-(((S)-oxetan-2-yl)methyl)-3H-imidazo[4,5-b]pyridine-5-carboxylic acid], the figure is 20 to 200 nM.
For `O=C(O)c1ccc2nc(CN3CCC(c4cccc5c4OCC(c4ccc(Cl)cc4)O5)CC3)n(C[C@@H]3CCO3)c2n1` (stereo partly drawn) [Compound 111a, 2-((4-(2-(4-chlorophenyl)-2,3-dihydrobenzo[b][1,4]dioxin-5-yl)piperidin-1-yl)methyl)-3-(((S)-oxetan-2-yl)methyl)-3H-imidazo[4,5-b]pyridine-5-carboxylic acid], the EC50 was not above 0.2 nM.
As for `O=C(O)c1ccc2nc(CN3CCC(c4cccc5c4OC[C@@H](c4ccc(Cl)cc4)O5)CC3)n(C[C@@H]3CCO3)c2n1` [Compound 111b, 2-((4-((R)-2-(4-chlorophenyl)-2,3-dihydrobenzo[b][1,4]dioxin-5-yl)piperidin-1-yl)methyl)-3-((S)-oxetan-2-ylmethyl)-3H-imidazo[4,5-b]pyridine-5-carboxylic acid], the concentration giving a half-maximal response (EC50) was not above 0.2 nM.
As to `O=C(O)c1ccc2nc(CN3CCC(c4cccc5c4OC[C@H](c4ccc(Cl)cc4)O5)CC3)n(C[C@@H]3CCO3)c2n1` [Compound 111c, 2-((4-((S)-2-(4-chlorophenyl)-2,3-dihydrobenzo[b][1,4]dioxin-5-yl)piperidin-1-yl)methyl)-3-(((S)-oxetan-2-yl)methyl)-3H-imidazo[4,5-b]pyridine-5-carboxylic acid], the EC50 lay within 20 to 200 nM.
As for `O=C(O)c1ccc2nc(CN3CCC(c4cccc5c4OCC(c4cccc(Cl)c4)O5)CC3)n(C[C@@H]3CCO3)c2n1` (stereo partly drawn) [Compound 112a, 2-((4-(2-(3-chlorophenyl)-2,3-dihydrobenzo[b][1,4]dioxin-5-yl)piperidin-1-yl)methyl)-3-(((S)-oxetan-2-yl)methyl)-3H-imidazo[4,5-b]pyridine-5-carboxylic acid], the figure is 0.2 to 20 nM.
Turning to `O=C(O)c1ccc2nc(CN3CCC(c4cccc5c4OCC(c4ccc(Cl)c(F)c4)O5)CC3)n(C[C@@H]3CCO3)c2n1` (stereo partly drawn) [Compound 113a, 2-((4-(2-(4-chloro-3-fluorophenyl)-2,3-dihydrobenzo[b][1,4]dioxin-5-yl)piperidin-1-yl)methyl)-3-(((S)-oxetan-2-yl)methyl)-3H-imidazo[4,5-b]pyridine-5-carboxylic acid], the EC50 fell in the range of 0.2 to 20 nM.
Regarding `C[C@H]1CN(c2cccc3c2OCC(c2ccc(Cl)cc2)O3)CCN1Cc1nc2ccc(C(=O)O)nc2n1C[C@@H]1CCO1` (stereo partly drawn) [Compound 114a, 2-(((2S)-4-(2-(4-chlorophenyl)-2,3-dihydrobenzo[b][1,4]dioxin-5-yl)-2-methylpiperazin-1-yl)methyl)-3-(((S)-oxetan-2-yl)methyl)-3H-imidazo[4,5-b]pyridine-5-carboxylic acid], the EC50 was 0.2 to 20 nM.
`O=C(O)c1ccc2nc(CN3CCC(c4cccc5c4OCC(c4ccc(Cl)cc4)O5)CC3)n(C[C@@H]3CCO3)c2c1` (stereo partly drawn) [Compound 115a, 2-((4-(2-(4-chlorophenyl)-2,3-dihydrobenzo[b][1,4]dioxin-5-yl)piperidin-1-yl)methyl)-1-(((S)-oxetan-2-yl)methyl)-1H-benzo[d]imidazole-6-carboxylic acid]: the EC50 is not above 0.2 nM.
As to `Cc1ccc(C2COc3c(cccc3C3CCN(Cc4nc5ccc(C(=O)O)nc5n4C[C@@H]4CCO4)CC3)O2)cc1` (stereo partly drawn) [Compound 116a, 3-(((S)-oxetan-2-yl)methyl)-2-((4-(2-(p-tolyl)-2,3-dihydrobenzo[b][1,4]dioxin-5-yl)piperidin-1-yl)methyl)-3H-imidazo[4,5-b]pyridine-5-carboxylic acid], the EC50 was not above 0.2 nM.
The same measure for `O=C(O)c1ccc2nc(CN3CCC(c4cccc5c4OCC(c4ccc(F)cc4)O5)CC3)n(C[C@@H]3CCO3)c2n1` (stereo partly drawn) [Compound 117a, 2-((4-(2-(4-fluorophenyl)-2,3-dihydrobenzo[b][1,4]dioxin-5-yl)piperidin-1-yl)methyl)-3-(((S)-oxetan-2-yl)methyl)-3H-imidazo[4,5-b]pyridine-5-carboxylic acid]: 0.2 to 20 nM; for `N#Cc1ccc(C2COc3c(cccc3C3CCN(Cc4nc5ccc(C(=O)O)nc5n4C[C@@H]4CCO4)CC3)O2)cc1` (stereo partly drawn) [Compound 118a, 2-((4-(2-(4-cyanophenyl)-2,3-dihydrobenzo[b][1,4]dioxin-5-yl)piperidin-1-yl)methyl)-3-(((S)-oxetan-2-yl)methyl)-3H-imidazo[4,5-b]pyridine-5-carboxylic acid]: not above 0.2 nM.
As to `N#Cc1ccc([C@@H]2COc3c(cccc3C3CCN(Cc4nc5ccc(C(=O)O)nc5n4C[C@@H]4CCO4)CC3)O2)cc1` [Compound 118b, 2-((4-((R)-2-(4-cyanophenyl)-2,3-dihydrobenzo[b][1,4]dioxin-5-yl)piperidin-1-yl)methyl)-3-(((S)-oxetan-2-yl)methyl)-3H-imidazo[4,5-b]pyridine-5-carboxylic acid], the EC50 was not above 0.2 nM.
